Results from patent publication US4169197A, “6-Deoxyneamines aminoglycoside compounds” (The Upjohn Company, priority 1978, dated 1979).
Values after ≈ are worked out from the molar mass of the structure shown.

What was measured:
Type in all cases: cell-based
S. pneumoniae I UC 41 = assay: standard microplate test in BHI Agar; details: Streptococcus pneumoniae, UC41, 20 h, read-out: Minimum Inhibitory Concentration
Experimental: (§1) The compounds VII, XI, XVβ, XVα and XVI were tested in a standard microplate test in BHI (Brain Heart Infusion) Agar at a concentration of 1 mg./ml. and dilutions thereof at 37° incubation temperature. The end points are read out 20 hours. BHI Agar is supplied by Difco Laboratories, Detroit, Mich.

S. pyogenes UC 152 = assay: standard microplate test in BHI Agar; details: Streptococcus pyogenes, UC152, 20 h, read-out: Minimum Inhibitory Concentration
Experimental: as §1

S. faecalis UC 694 = assay: standard microplate test in BHI Agar; details: Enterococcus faecalis, UC694, 20 h, read-out: Minimum Inhibitory Concentration
Experimental: as §1

Ps. aeruginosa UC 95 [1] = assay: standard microplate test in BHI Agar; details: Pseudomonas aeruginosa, UC95, 20 h, read-out: Minimum Inhibitory Concentration
Experimental: as §1

S. typhi UC 215 = assay: standard microplate test in BHI Agar; details: Salmonella enterica, 20 h, read-out: Minimum Inhibitory Concentration
Experimental: as §1

P. morganii UC 3186 = assay: standard microplate test in BHI Agar; details: Morganella morganii, UC3186, 20 h, read-out: Minimum Inhibitory Concentration
Experimental: as §1

S. marcescens UC 131 = assay: standard microplate test in BHI Agar; details: Serratia marcescens, UC131, 20 h, read-out: Minimum Inhibitory Concentration
Experimental: as §1

P. mirabilis UC 6671 = assay: standard microplate test in BHI Agar; details: Proteus mirabilis, UC6671, 20 h, read-out: Minimum Inhibitory Concentration
Experimental: as §1

E. coli UC 45 = assay: standard microplate test in BHI Agar; details: Escherichia coli, UC45, 37°, 20 hours, Table III, read-out: Minimum Inhibitory Concentration
Experimental: as §1

K. pneumoniae UC 58 = assay: standard microplate test in BHI Agar; details: Klebsiella pneumoniae, UC58, 20 h, read-out: Minimum Inhibitory Concentration
Experimental: as §1

P. rettgeri UC 339 = assay: standard microplate test in BHI Agar; details: Providencia rettgeri, UC339, 20 h, read-out: Minimum Inhibitory Concentration
Experimental: as §1

S. flexneri UC 143 = assay: standard microplate test in BHI Agar; details: Shigella flexneri, UC143, 37°, 20 hours, Table III, read-out: Minimum Inhibitory Concentration
Experimental: as §1

S. schottmuelleri UC 126 [2] = assay: standard microplate test in BHI Agar; details: 37°, 20 hours, Table III, read-out: Minimum Inhibitory Concentration
Experimental: as §1

S. aureus UC 76 = assay: standard microplate test in BHI Agar; details: Staphylococcus aureus, UC76, 20 h, read-out: Minimum Inhibitory Concentration
Experimental: as §1

P. vulgaris UC 93 [3] = assay: standard microplate test in BHI Agar; details: Proteus vulgaris, UC93, 20 h, read-out: Minimum Inhibitory Concentration
Experimental: as §1

S. lutea UC 130 = assay: standard disc plate assay, zones of inhibition; details: Micrococcus luteus, UC130; 1 mg/ml; 12.5 mm paper discs; Table II; read-out: Zones of Inhibition
From the text: (§2) The compounds of formulas (V, VII, IX, XI, XIV, XVI, and XIX) are active as antibacterials and can be used in various environments to erradicate or control susceptible microorganisms. Tables I and II set forth the in vitro antibacterial test results for representative compounds of the present invention. The results were obtained with a standard disc plate assay using 12.5 mm paper discs.

K. pneumoniae UC 57 = assay: standard disc plate assay, zones of inhibition; details: Klebsiella pneumoniae, UC57, 12.5 mm paper discs, Table II, read-out: Zones of Inhibition
From the text: as §2

Ps. aeruginosa UC 95 [4] = assay: standard disc plate assay, zones of inhibition; details: Pseudomonas aeruginosa, UC95; 1 mg/ml; 12.5 mm paper discs; Table II; read-out: Zones of Inhibition
From the text: as §2

B. cereus UC 3145 = assay: standard disc plate assay, zones of inhibition; details: Bacillus cereus, UC3145; 1 mg/ml; 12.5 mm paper discs; Table II; read-out: Zones of Inhibition
From the text: as §2

B. subtilis UC 564 = assay: standard disc plate assay, zones of inhibition; details: Bacillus subtilis, UC564, 12.5 mm paper discs, Table II, read-out: Zones of Inhibition
From the text: as §2

S. schottmuelleri UC 126 [5] = assay: standard disc plate assay, zones of inhibition; details: 1 mg/ml; 12.5 mm paper discs; Table II
From the text: as §2

E. coli UC 51 = assay: standard disc plate assay, zones of inhibition; details: Escherichia coli, UC51, 12.5 mm paper discs, Table II, read-out: Zones of Inhibition
From the text: as §2

P. vulgaris UC 93 [6] = assay: standard disc plate assay, zones of inhibition; details: Proteus vulgaris, UC93; 1 mg/ml; 12.5 mm paper discs; Table II; read-out: Zones of Inhibition
From the text: as §2

S. gallinarum UC 265 = assay: standard disc plate assay, zones of inhibition; details: Salmonella enterica, 12.5 mm paper discs, Table II, read-out: Zones of Inhibition
From the text: as §2

S. aureus UC 80 = assay: standard disc plate assay, zones of inhibition; details: Staphylococcus aureus, UC80, 12.5 mm paper discs, Table II, read-out: Zones of Inhibition
From the text: as §2

Which results are given for C[C@@]1(O)C[C@H](N)C[C@H](N)[C@H]1O[C@H]1O[C@H](CN)[C@@H](O)[C@H](O)[C@H]1N [6-deoxy-5-methylneamine (VII), 6-deoxy-5-methyl-neamine]?
MIC (S. pneumoniae I UC 41): 62.5 µg/mL (≈ 195 µM); MIC (S. pyogenes UC 152): 7.8 µg/mL (≈ 24.3 µM); MIC (S. faecalis UC 694): > 500 µg/mL; MIC (Ps. aeruginosa UC 95 [1]): > 500 µg/mL; MIC (S. typhi UC 215): 62.5 µg/mL (≈ 195 µM); MIC (P. morganii UC 3186): 125 µg/mL (≈ 390 µM); MIC (S. marcescens UC 131): 125 µg/mL (≈ 390 µM); MIC (P. mirabilis UC 6671): 250 µg/mL (≈ 780 µM); MIC (E. coli UC 45): 125 µg/mL (≈ 390 µM); MIC (K. pneumoniae UC 58): 15.6 µg/mL (≈ 48.7 µM); MIC (P. rettgeri UC 339): > 500 µg/mL; MIC (S. flexneri UC 143): 125 µg/mL (≈ 390 µM); MIC (S. schottmuelleri UC 126 [2]): 62.5 µg/mL (≈ 195 µM); MIC (S. aureus UC 76): 15.6 µg/mL (≈ 48.7 µM); MIC (P. vulgaris UC 93 [3]): 62.5 µg/mL (≈ 195 µM); zone of inhibition at 1000 µg/mL (S. lutea UC 130): 15 mm; zone of inhibition at 100 µg/mL (K. pneumoniae UC 57; 0.1 mg/ml): 22 mm; zone of inhibition at 1000 µg/mL (K. pneumoniae UC 57; 1 mg/ml): 29 mm; zone of inhibition at 1000 µg/mL (Ps. aeruginosa UC 95 [4]): 15 mm; zone of inhibition at 1000 µg/mL (B. cereus UC 3145): 23 mm; zone of inhibition at 100 µg/mL (B. subtilis UC 564; 0.1 mg/ml): 26 mm; zone of inhibition at 1000 µg/mL (B. subtilis UC 564; 1 mg/ml): 37 mm; zone of inhibition at 1000 µg/mL (S. schottmuelleri UC 126 [5]): 21 mm; zone of inhibition at 100 µg/mL (E. coli UC 51; 0.1 mg/ml): 16 mm; zone of inhibition at 1000 µg/mL (E. coli UC 51; 1 mg/ml): 24 mm; zone of inhibition at 1000 µg/mL (P. vulgaris UC 93 [6]): 24 mm; zone of inhibition at 100 µg/mL (S. gallinarum UC 265; 0.1 mg/ml): 18 mm; zone of inhibition at 1000 µg/mL (S. gallinarum UC 265; 1 mg/ml): 28 mm; zone of inhibition at 100 µg/mL (S. aureus UC 80; 0.1 mg/ml): 18 mm; zone of inhibition at 1000 µg/mL (S. aureus UC 80; 1 mg/ml): 25 mm
